Positions of bridges follow the written chain, without caps; N, C: chain ends. Non-standard residues stand in square brackets, D forms with d. Residues, ends and D or L forms follow the SMILES beside them. Met(O) = CS(=O)CC[C@H](N)C(=O)O
Key:
solubility = format: physicochemical; conditions: for solubility of the acetate: acetate of the peptide; for solubility of the trichloracetate: trichloracetate of the peptide
[1] = stability towards mild oxidation with performic acid; format: physicochemical
Description: b. 80 g of Bio-gel P6 are allowed to swell overnight in 0.1N-formic acid, then filled into a chromatography tube (internal diameter 2.5 cm) up to a height of 94 cm (when it has settled; total volume of the gel bed, 460 ml). 600 mg of the crude product obtained as described under (a) above are dissolved in 20 ml of 0.1N-formic acid, the solution poured on to the gel column, and eluted with 0.1N-formic acid. The eluate is passed through a recording UV percolation photometer (254 nm) and collected in fractions of 15 ml each. The eluates are analyzed by thin-layer chromatography over Sephadex G 25 (superfine) (registered Trade Mark) in 0.1N-formic acid (with chlorine/tolidine reagent), and tested biologically. The maximum activity is found in an eluate volume corresponding to 0.8 column volume. The fractions are lyophilized individually and yield 70% of the total activity; the best fractions have an activity of 40 MRC units/mg. The molecular weight of these active substances is below 5000. The product can be further purified by counter-current distribution and/or gel chromatography. For this purpose, batches of 2-5 g of the enriched material are subjected to counter-current distribution over 250-300 stages in the system n-butanol:methanol:0.1N-acetic acid (4:1:5). […]

| Structure (SMILES) | solubility of the acetate (solubility) | solubility of the trichloracetate (solubility) | stability towards mild oxidation with performic acid [1] |
| --- | --- | --- | --- |
| CSCC[C@H](NC(=O)CNC(=O)[C@H](CO)NC(=O)[C@H](Cc1ccccc1)NC(=O)[C@H](CCCNC(=N)N)NC(=O)[C@H](Cc1c[nH]cn1)NC(=O)[C@H](Cc1ccccc1)NC(=O)[C@H](CC(N)=O)NC(=O)[C@H](CC(N)=O)NC(=O)[C@H](CC(C)C)NC(=O)[C@H](CC(N)=O)NC(=O)[C@H](CCCNC(=N)N)NC(=O)[C@H](Cc1c[nH]c2ccccc12)NC(=O)[C@H](Cc1ccc(O)cc1)NC(=O)[C@H](C)NC(=O)[C@H](CO)NC(=O)[C@H](CC(C)C)NC(=O)[C@@H](NC(=O)[C@@H]1CSSC[C@H](N)C(=O)N[C@@H](CO)C(=O)N[C@@H](CC(N)=O)C(=O)N[C@@H](CC(C)C)C(=O)N[C@@H](CO)C(=O)N[C@@H]([C@@H](C)O)C(=O)N1)C(C)C)C(=O)NCC(=O)N[C@@H](Cc1ccccc1)C(=O)NCC(=O)N1CCC[C@H]1C(=O)N[C@@H](CCC(=O)O)C(=O)N[C@H](C(=O)N1CCC[C@H]1C(N)=O)[C@@H](C)O [α-thyrocalcitonin] (H-CSNLSTCVLSAYWRNLNNFHRFSGMGFGPETP-NH2; disulfide 1-7) | readily soluble | rather sparingly soluble | becomes a more polar product |
| CC(C)C[C@H](NC(=O)[C@H](CC(N)=O)NC(=O)[C@H](CCCNC(=N)N)NC(=O)[C@H](Cc1c[nH]c2ccccc12)NC(=O)[C@H](Cc1ccc(O)cc1)NC(=O)[C@H](C)NC(=O)[C@H](CO)NC(=O)[C@H](CC(C)C)NC(=O)[C@@H](NC(=O)[C@@H]1CSSC[C@H](N)C(=O)N[C@@H](CO)C(=O)N[C@@H](CC(N)=O)C(=O)N[C@@H](CC(C)C)C(=O)N[C@@H](CO)C(=O)N[C@@H]([C@@H](C)O)C(=O)N1)C(C)C)C(=O)N[C@@H](CC(N)=O)C(=O)N[C@@H](CC(N)=O)C(=O)N[C@@H](Cc1ccccc1)C(=O)N[C@@H](Cc1c[nH]cn1)C(=O)N[C@@H](CCCNC(=N)N)C(=O)N[C@@H](Cc1ccccc1)C(=O)N[C@@H](CO)C(=O)NCC(=O)N[C@@H](CC[S+](C)[O-])C(=O)NCC(=O)N[C@@H](Cc1ccccc1)C(=O)NCC(=O)N1CCC[C@H]1C(=O)N[C@@H](CCC(=O)O)C(=O)N[C@H](C(=O)N1CCC[C@H]1C(N)=O)[C@@H](C)O (stereo partly drawn) [β-thyrocalcitonin] (H-CSNLSTCVLSAYWRNLNNFHRFSG[Met(O)]GFGPETP-NH2; disulfide 1-7) | readily soluble | rather sparingly soluble | stable |
